Data: publication PMC8491554 (Journal of agricultural and food chemistry, 2021)

Assays:
SARS-CoV-2 Mpro [1] = molecular target: T1, SARS-CoV-2 Mpro (Severe acute respiratory syndrome coronavirus 2, UniProt P0DTD1); assay: biochemical; details: for inhibition at 2 µM / inhibition at 10 µM / inhibition at 50 µM: read-out: inhibition of SARS-CoV-2 Mpro enzyme activity (inhibition rate)
SARS-CoV-2 Mpro [2] = molecular target: T1, SARS-CoV-2 Mpro; format: binding; details: for SPR response units (RUs) in sensorgrams, up to: highest response in SPR sensorgrams; for binding capacity in SPR sensorgrams (in words): Supporting Information

| SMILES | inhibition at 2 µM (SARS-CoV-2 Mpro [1]) [%] | inhibition at 10 µM (SARS-CoV-2 Mpro [1]) [%] | inhibition at 50 µM (SARS-CoV-2 Mpro [1]) [%] | SPR response units (RUs) in sensorgrams, up to (SARS-CoV-2 Mpro [2]) | also measured |
| --- | --- | --- | --- | --- | --- |
| O=C1O[C@H]2[C@@H]3OC(=O)c4cc(O)c(O)c(O)c4-c4c(O)c(O)c5oc(=O)c6c(c(O)c(O)c7oc(=O)c4c5c76)-c4c(cc(O)c(O)c4O)C(=O)OC[C@H]3OC(O)[C@@H]2OC(=O)c2cc(O)c(O)c(O)c2-c2c1cc(O)c(O)c2O (mixture of isomers) [PA, punicalagin] | 2 | 59 | 100 |  |  |
| O=c1oc2c(O)c(O)cc3c(=O)oc4c(O)c(O)cc1c4c23 [EA, ellagic acid] | 3 | 28 | 57 |  |  |
| O=C(O)c1cc(O)c(O)c(O)c1 [GLA, gallic acid] |  |  |  | up to 30 RU |  |
| O=C(OC[C@H]1O[C@@H](OC(=O)c2cc(O)c(O)c(O)c2)[C@H](OC(=O)c2cc(O)c(O)c(O)c2)[C@@H](OC(=O)c2cc(O)c(O)c(O)c2)[C@@H]1OC(=O)c1cc(O)c(O)c(O)c1)c1cc(O)c(O)c(O)c1 [PGG, 1,2,3,4,6-penta-O-galloyl-ß-D-glucose] | 14 | 73 | 100 | ≤ 1186 RU |  |
| Oc1cccc(O)c1O [PYG, pyrogallol] | 20 |  |  |  | reference binding signal (SARS-CoV-2 Mpro [2]; CM5 sensor chip): less than 10%; reference signal (reference binding RUs over binding level RUs) (SARS-CoV-2 Mpro [2]; PEG sensor chip): 64% |
| O=C(OC[C@H]1O[C@@H](OC(=O)c2cc(O)c(O)c(OC(=O)c3cc(O)c(O)c(O)c3)c2)[C@H](OC(=O)c2cc(O)c(O)c(OC(=O)c3cc(O)c(O)c(O)c3)c2)[C@@H](OC(=O)c2cc(O)c(O)c(OC(=O)c3cc(O)c(O)c(O)c3)c2)[C@@H]1OC(=O)c1cc(O)c(O)c(OC(=O)c2cc(O)c(O)c(O)c2)c1)c1cc(O)c(O)c(OC(=O)c2cc(O)c(O)c(O)c2)c1 [TA, tannic acid] |  |  |  | up to 643 RU | inhibition of SARS-CoV-2 Mpro enzyme activity (inhibition rate) (SARS-CoV-2 Mpro [1]; 2 μM): 13%; inhibition of SARS-CoV-2 Mpro enzyme activity (inhibition rate) (SARS-CoV-2 Mpro [1]; 10 μM): 73%; inhibition of SARS-CoV-2 Mpro enzyme activity (inhibition rate) (SARS-CoV-2 Mpro [1]; 50 μM): 100% |
| O=c1oc2cc(O)ccc2c2ccc(O)cc12 [UA, urolithin A] |  |  |  |  | binding capacity in SPR sensorgrams (in words) (SARS-CoV-2 Mpro [2]): undetectable binding capacity |
| O=c1oc2cc(O)ccc2c2ccccc12 [UB, urolithin B] |  |  |  | < 10 RU | binding capacity in SPR sensorgrams (in words) (SARS-CoV-2 Mpro [2]): weak binding capacity |
| O=c1c(O)c(-c2ccc(O)c(O)c2)oc2cc(O)cc(O)c12 [quercetin, reference compound] |  |  |  | up to 103 RU |  |
